The source of these data is US20060116407A1, “Amide derivatives” (priority 2004, published 2006).

In one test the test system is HEK293 cells. The experiment in a line: Viability assay of HEK293 cells (CellTiter-Glo). It counts as cell-based. To be noted: Homo sapiens, 168 h, 7 days, 3 μM to 0.00015 μM, luminescence. The procedure:
Viability Assay of HEK293 Cells
A viability assay was performed using the CellTiter-Glo™ Luminescent Cell Viability Assay (see Promega Corporation's Technical Publication No. 288, pp. 1-11 [revised 2.04] which is hereby incorporated by reference in its entirety). This assay is a homogeneous method of determining the number of viable cells in culture based on quantitation of the ATP present, which signals the presence of metabolically active cells. The assay is designed for use with multiwell formats, making it ideal for automated high-throughput screening (HTS), cell proliferation and cytotoxicity assays. The homogeneous assay procedure involves adding a single reagent (containing luciferase, luciferan substrate, and buffer) directly to cells cultured in serum-supplemented medium. Cell washing, removal of medium and multiple pipetting steps are not required. The system detects as few as 15 cells/well in a 384-well format in 10 minutes after adding reagent and mixing.
The homogeneous “add-mix-measure” format results in cell lysis and generation of a luminescent signal proportional to the amount of ATP present. The amount of ATP is directly proportional to the number of cells present in culture. The above-referenced assay generates a “glow-type” luminescent signal, produced by the luciferase reaction, which has a half-life generally greater than five hours, depending on cell type and medium used. The extended half-life eliminates the need to use reagent injectors and provides flexibility for continuous or batch mode processing of multiple plates. The unique homogeneous format avoids errors that may be introduced by other ATP measurement methods that require multiple steps.
HEK293 cells (human embryonic kidney cell line transformed by Adenovirus 5 fragments, ATCC-No. CRL 1573) were cultivated in Dulbecco's Modified Eagle Medium (DMEM) (1×) liquid (high glucose) (which includes L-Alanyl-L-Glutamine [a stabilized a form of L-Glutamine], 4500 mg/L glucose, and 110 mg/L sodium pyruvate) from Invitrogen Corporation (Invitrogen Catalog Number 31966-021 [now 10569-010] which is hereby incorporated by reference in its entirety), 5% Fetal Calf Serum (FCS, Sigma Cat-No. F4135 (FBS) which is hereby incorporated by reference in its entirety), and 100 Units/ml penicillin/100 μg/ml streptomycin(=Pen/Strep from Invitrogen Cat. No. 15140 which is hereby incorporated by reference in its entirety). For the assay the cells were seeded in 384 well plates, 5000 cells per well, in the same medium. The next day the test compounds were added in various concentrations ranging from 3 μM to 0.00015 μM (10 concentrations, 1:3 diluted). After 7 days the above viability assay was performed in accordance with the following steps: • Step 1: The cell-plate was equilibrated to room temperature for approximately 30 minutes and than the assay reagent was added. • Step 2: The contents were carefully mixed for 15 minutes to induce cell lysis. • Step 3: After 45 minutes the luminescent signal was measured in Victor 2, (scanning multiwell spectrophotometer, Wallac). Details: 1st Day: • Medium: Dulbecco's Modified Eagle Medium (DMEM) (1×) liquid (high glucose) (which includes L-Alanyl-L-Glutamine [a stabilized a form/source of L-Glutamine], 4500 mg/L glucose, and 110 mg/L sodium pyruvate) from Invitrogen Corporation (Invitrogen Catalog Number 31966-021 [now 10569-010]), 5% Fetal Calf Serum (FCS, Sigma Cat-No. F4135 (FBS)), and Pen/Strep (Invitrogen Cat. No. 15140). • HEK293 (ATCC-No. CRL 1573): 5000 cells in 60 μl per well of 384 well plate. (Greiner 781098, white plates) • Incubate 24 h at 37° C., 5% CO2 2nd Day: Induction (Substance Testing):
In general the dilution steeps are 1:3 a) Add 8 μl of 10 mM stock solution of compound to 72 μl DMSO b) dilute 9×1:3 (always 30 μl to 60 μl DMSO) in this DMSO dilution row (results in 10 wells with concentrations from 1000 μM to 0.06 μM) c) dilute each concentration 1: 4.8 (10 μl compound dilution to 38 μl medium) […]

In a further test the target is T1, HER-2 (Homo sapiens, UniProt P04626).
T1 construct: endogenous in cells; host or cells: Calu-3 (ATCC HTB-55)
T1 sequence (P04626 23-1255): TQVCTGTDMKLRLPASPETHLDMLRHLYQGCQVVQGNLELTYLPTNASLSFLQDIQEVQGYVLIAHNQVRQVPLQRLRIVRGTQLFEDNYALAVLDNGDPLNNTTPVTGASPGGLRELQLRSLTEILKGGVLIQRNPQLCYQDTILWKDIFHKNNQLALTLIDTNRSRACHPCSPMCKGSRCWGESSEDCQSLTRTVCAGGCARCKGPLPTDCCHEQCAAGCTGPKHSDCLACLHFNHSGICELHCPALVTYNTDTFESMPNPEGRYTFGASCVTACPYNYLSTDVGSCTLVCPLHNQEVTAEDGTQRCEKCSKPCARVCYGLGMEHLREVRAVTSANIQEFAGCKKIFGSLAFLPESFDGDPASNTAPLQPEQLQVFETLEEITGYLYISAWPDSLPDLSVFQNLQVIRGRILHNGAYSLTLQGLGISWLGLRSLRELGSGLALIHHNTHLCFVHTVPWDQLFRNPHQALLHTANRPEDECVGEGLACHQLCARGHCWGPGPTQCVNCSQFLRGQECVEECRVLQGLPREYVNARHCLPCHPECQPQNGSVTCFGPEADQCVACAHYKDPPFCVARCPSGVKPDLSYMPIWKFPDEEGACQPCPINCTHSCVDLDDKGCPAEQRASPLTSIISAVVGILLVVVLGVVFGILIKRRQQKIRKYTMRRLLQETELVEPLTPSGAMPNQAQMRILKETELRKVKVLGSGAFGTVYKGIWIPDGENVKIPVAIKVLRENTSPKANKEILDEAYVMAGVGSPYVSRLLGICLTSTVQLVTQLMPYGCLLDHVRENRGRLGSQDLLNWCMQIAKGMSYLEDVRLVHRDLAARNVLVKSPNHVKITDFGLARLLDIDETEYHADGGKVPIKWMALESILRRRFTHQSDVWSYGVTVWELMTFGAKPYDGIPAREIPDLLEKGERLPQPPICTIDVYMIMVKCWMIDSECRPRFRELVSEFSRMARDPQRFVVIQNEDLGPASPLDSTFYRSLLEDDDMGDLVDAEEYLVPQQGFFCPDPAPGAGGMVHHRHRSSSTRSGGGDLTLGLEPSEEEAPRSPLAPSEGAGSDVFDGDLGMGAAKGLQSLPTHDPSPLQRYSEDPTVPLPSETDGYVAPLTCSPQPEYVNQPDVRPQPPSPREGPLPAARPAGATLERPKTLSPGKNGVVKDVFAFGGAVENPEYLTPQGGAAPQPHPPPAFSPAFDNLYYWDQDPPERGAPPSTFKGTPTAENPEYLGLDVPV
Description: Inhibition of HER-2 phosphorylation in Calu-3 tumor cell line. The test is classed as cell-based. To be noted: Calu-3 cells, compound 1 μM, 16 h, pY 1248 in HER-2, percentage of DMSO control; for inhibition at 1 µM: read-out: Percent inhibition of HER2-phosphorylation (compound concentration 1 μM). The procedure:
Inhibition of HER-2 Phosphorylation in Calu-3 Tumor Cell Line
2×10^5 Calu-3 (ATTC HTB-55) cells per well were plated in a 12-well plate. After 4 days cells were starved for 16 h in Dulbecco's Modified Eagle Medium (DMEM)/0.5% Fetal Calf Serum (FCS)/1% Glutamine. During this 16 h period cells were incubated with a solution of the test compound in dimethylsulfoxide(DMSO), so that the final concentration of the compound is 1 μM and the final volume of DMSO is 0.5%. Afterwards cells were lysed in lyses buffer containing 1% Triton®X-100, 10% Glycerol, 1 mM Ethylene glycol-bis(2-aminoethylether)-N,N,N′,N′-tetraacetic acid (EGTA), 1.5 mM MgCl2, 150 mM NaCl, 50 mM 4-(2-hydroxyethyl)-1-piperazineethanesulfonic acid (HEPES) buffer pH 7.5, 1 mM Phenylmethylsulfonyl fluoride (PMSF), 10 ∥g/mL Aprotinin and […] Orthovanadate. Cell lysates were analyzed on a Sodium Dodecyl Sulfate Polyacrylamide Gel Electrophoresis (SDS PAGE) and after transfer to a nitrocellulose membrane detected with an antibody specifically recognizing the pY 1248 in HER-2. Inhibition of HER-2 phosphorylation is calculated as percentage of the control, which is treated with DMSO only.

Structures are written as SMILES.

As to `O=C(Nc1ccc(F)cc1)c1coc(COc2ccc(CCCCn3ccnn3)cc2)n1` [Example 31, 2-[4-(4-[1,2,3]Triazol-1-yl-butyl)-phenoxymethyl]-oxazole-4-carboxylic acid (4-fluoro-phenyl)-amide], in the test on HEK293 cells, the IC50 was 500 to 3000 nM. Also, the inhibition at 1 µM at HER-2 lay in the range of 55 to 70%.
For `O=C(Nc1ccc(OC(F)(F)F)cc1)c1nc(COc2ccc(CCCCn3ccnn3)cc2)cs1` [Example 39, 4-[4-(4-[1,2,3]Triazol-1-yl-butyl)-phenoxymethyl]-thiazole-2-carboxylic acid (4-trifluoromethoxy-phenyl)-amide], in that order: 5 to 500 nM and 87%.
Regarding `O=C(Nc1ccc(OC(F)F)cc1)c1coc(COc2ccc(CCCCn3ccnn3)cc2)n1` [Example 22, 2-[4-(4-[1,2,3]Triazol-1-yl-butyl)-phenoxymethyl]-oxazole-4-carboxylic acid (4-difluoromethoxy-phenyl)-amide], the inhibition at 1 µM at HER-2 was 55 to 70%.
On to `O=C(Nc1ccc(OC(F)(F)F)cc1)c1coc(COc2ccc(CCCCn3ccnn3)cc2)n1` [Example 10, 2-[4-(4-[1,2,3]Triazol-1-yl-butyl)-phenoxymethyl]-oxazole-4-carboxylic acid (4-trifluoro-methoxy-phenyl)-amide], for which the “Percent inhibition of HER2-phosphorylation (compound concentration 1 μM)” value at HER-2 worked out at 75%.
In turn, `O=C(Nc1ccc2c(c1)OC(F)(F)O2)c1coc(COc2ccc(CCCCn3ccnn3)cc2)n1` [Example 9, 2-[4-(4-[1,2,3]Triazol-1-yl-butyl)-phenoxymethyl]-oxazole-4-carboxylic acid (2,2-difluoro-benzo [1,3]dioxol-5-yl)-amide] showed an IC50 with HEK293 cells of 116 nM. In addition, the inhibition at 1 µM on HER-2 lay in the range of 55 to 70%.
For `O=C(Nc1ccc(OC(F)(F)F)cc1)c1csc(COc2ccc(CCCCn3ccnn3)cc2)n1` [Example 43, 2-[4-(4-[1,2,3]Triazol-1-yl-butyl)-phenoxymethyl]-thiazole-4-carboxylic acid (4-trifluoromethoxy-phenyl)-amide], in that order: 500 to 3000 nM and > 80%.
For `O=C(Nc1ccc(S(F)(F)(F)(F)F)cc1)c1nc(COc2ccc(CCCCn3ccnn3)cc2)cs1` [Example 40, 4-[4-(4-[1,2,3]Triazol-1-yl-butyl)-phenoxymethyl]-thiazole-2-carboxylic acid (4-pentafluorosulfanyl-phenyl)-amide], in that order: 5 to 500 nM and 70 to 80%.
Turning to `CC(C)(C)c1ccc(C(=O)Nc2nc(COc3ccc(CCCCn4ccnn4)cc3)cs2)cc1` [Example 52-21, 4-tert-Butyl-N-{4-[4-(4-[1,2,3]triazol-1-yl-butyl)-phenoxymethyl]-thiazol-2-yl}-benzamide], the IC50 in the test on HEK293 cells is 5 to 500 nM. Further, the inhibition at 1 µM on HER-2 is > 80%.
With `CN(C(=O)c1coc(COc2ccc(CCCCn3ccnn3)cc2)n1)c1ccc(Cl)cc1` [Example 2, 2-[4-(4-[1,2,3]Triazol-1-yl-butyl)-phenoxymethyl]-oxazole-4-carboxylic acid (4-chloro-phenyl)-methyl-amide], the inhibition at 1 µM at HER-2 lay within 55 to 70%.
For the compound `COc1ccc(NC(=O)c2coc(COc3ccc(CCCCn4ccnn4)cc3)n2)cc1` [Example 37, 2-[4-(4-[1,2,3]Triazol-1-yl-butyl)-phenoxymethyl]-oxazole-4-carboxylic acid (4-methoxy-phenyl)-amide], the inhibition at 1 µM on HER-2 was 70 to 80%.
In the case of `O=C(Nc1nc(COc2ccc(CCCCn3ccnn3)cc2)cs1)c1ccc(F)c(Cl)c1` [Example 52-19, 3-Chloro-4-fluoro-N-{4-[4-(4-[1,2,3]triazol-1-yl-butyl)-phenoxymethyl]-thiazol-2-yl}-benzamide], the IC50 in the test on HEK293 cells is 5 to 500 nM.
As to `Cc1cc(F)ccc1NC(=O)c1coc(COc2ccc(CCCCn3ccnn3)cc2)n1` [Example 25, 2-[4-(4-[1,2,3]Triazol-1-yl-butyl)-phenoxymethyl]-oxazole-4-carboxylic acid (4-fluoro-2-methyl-phenyl)-amide], in the test with HEK293 cells, the IC50 fell in the range of 5 to 500 nM.
`CN(C(=O)c1coc(COc2ccc(CCCCn3ccnn3)cc2)n1)c1ccccc1` [Example 29, 2-[4-(4-[1,2,3]Triazol-1-yl-butyl)-phenoxymethyl]-oxazole-4-carboxylic acid methyl-phenyl-amide] gave an IC50 with HEK293 cells of 500 to 3000 nM.
As for `O=C(Nc1nc(COc2ccc(CCCCn3ccnn3)cc2)cs1)c1ccc(Cl)c(F)c1` [Example 52-6, 4-Chloro-3-fluoro-N-{4-[4-(4-[1,2,3]triazol-1-yl-butyl)-phenoxymethyl]-thiazol-2-yl}-benzamide], the IC50 in the test with HEK293 cells lay within 5 to 500 nM.
Still for that read-out and setting: the value for `O=C(Nc1nc(COc2ccc(CCCCn3ccnn3)cc2)cs1)c1ccc(SC(F)(F)F)cc1` [Example 52-7, N-{4-[4-(4-[1,2,3]Triazol-1-yl-butyl)-phenoxymethyl]-thiazol-2-yl}-4-trifluoromethylsulfanyl-benzamide] was 5 to 500 nM; that for `O=C(Nc1nc(COc2ccc(CCCCn3ccnn3)cc2)cs1)c1ccc(OC(F)(F)F)cc1` [Example 52-4, N-{4-[4-(4-[1,2,3]Triazol-1-yl-butyl)-phenoxymethyl]-thiazol-2-yl}-4-trifluoromethoxy-benzamide] was 5 to 500 nM.
On the same count and under the same terms, the figure for `Cc1cc(OCc2nc(C(=O)Nc3cccc(Cl)c3)co2)ccc1CCCCn1ccnn1` [Example 48, 2-[3-Methyl-4-(4-[1,2,3]triazol-1-yl-butyl)-phenoxymethyl]-oxazole-4-carboxylic acid (3-chloro-phenyl)-amide] is 5 to 500 nM.
Regarding `O=C(Nc1ccc(SC(F)(F)F)cc1)c1coc(COc2ccc(CCCCn3ccnn3)cc2)n1` [Example 11, 2-[4-(4-[1,2,3]Triazol-1-yl-butyl)-phenoxymethyl]-oxazole-4-carboxylic acid (4-trifluoro-methylsulfanyl-phenyl)-amide], the “Percent inhibition of HER2-phosphorylation (compound concentration 1 μM)” value on HER-2 was 69%.
In turn, `O=C(Nc1ccc(Cl)cc1)c1coc(COc2ccc(CCCCn3ccnn3)cc2)n1` [Example 6, 2-[4-(4-[1,2,3]Triazol-1-yl-butyl)-phenoxymethyl]-oxazole-4-carboxylic acid (4-chloro-phenyl)-amide] yielded an IC50 in the test on HEK293 cells of 500 to 3000 nM.
As to `FC(F)(F)c1ccc(C=Cc2nc(COc3ccc(CCCCn4ccnn4)cc3)co2)cc1` [reference compound, 1-[4-(4-{2-[2-(4-Trifluoromethyl-phenyl)-vinyl]-oxazol-4-ylmethoxy}-phenyl)-butyl]-1H-[1,2,3]triazole, reference compound], at HER-2, the inhibition at 1 µM turned out to be 52%.
